In patent US20140121201A1, “REGULATORY NETWORK FOR Th17 SPECIFICATION AND USES THEREOF” (priority 2012, published 2014):

Experiments:
[1] = test system: primary human macrophages; details: cited from earlier work
[2] = molecular target: T1, STAT3 (mouse, UniProt P42227 2-770); test: co-immunoprecipitation of endogenous IRF4 from Th17-polarized cell lysate, western blot for STAT3
T1 construct: Endogenous transcription factor, probed by western blot (anti-STAT3, Cell Signaling) in the IRF4 immunoprecipitate
Description: Naïve CD4 positive T cells were sorted and cultured under Th17 polarizing conditions for 48 h prior to assay. Whole cells lysates were prepared with high salt buffer (10 mM Tris, 420 mM NaCl, 0.5% NP40, 1 mM EDTA), sonicated, spun to remove insoluble particles, and diluted to a final concentration of 150 mM NaCl for co-immunoprecipitation. Endogenous IRF4 was immunoprecipitated using anti-IRF4 antibody in the presence or absence of 50 ug/ml ethidium bromide.

T1 sequence (P42227 2-770 limits assumed): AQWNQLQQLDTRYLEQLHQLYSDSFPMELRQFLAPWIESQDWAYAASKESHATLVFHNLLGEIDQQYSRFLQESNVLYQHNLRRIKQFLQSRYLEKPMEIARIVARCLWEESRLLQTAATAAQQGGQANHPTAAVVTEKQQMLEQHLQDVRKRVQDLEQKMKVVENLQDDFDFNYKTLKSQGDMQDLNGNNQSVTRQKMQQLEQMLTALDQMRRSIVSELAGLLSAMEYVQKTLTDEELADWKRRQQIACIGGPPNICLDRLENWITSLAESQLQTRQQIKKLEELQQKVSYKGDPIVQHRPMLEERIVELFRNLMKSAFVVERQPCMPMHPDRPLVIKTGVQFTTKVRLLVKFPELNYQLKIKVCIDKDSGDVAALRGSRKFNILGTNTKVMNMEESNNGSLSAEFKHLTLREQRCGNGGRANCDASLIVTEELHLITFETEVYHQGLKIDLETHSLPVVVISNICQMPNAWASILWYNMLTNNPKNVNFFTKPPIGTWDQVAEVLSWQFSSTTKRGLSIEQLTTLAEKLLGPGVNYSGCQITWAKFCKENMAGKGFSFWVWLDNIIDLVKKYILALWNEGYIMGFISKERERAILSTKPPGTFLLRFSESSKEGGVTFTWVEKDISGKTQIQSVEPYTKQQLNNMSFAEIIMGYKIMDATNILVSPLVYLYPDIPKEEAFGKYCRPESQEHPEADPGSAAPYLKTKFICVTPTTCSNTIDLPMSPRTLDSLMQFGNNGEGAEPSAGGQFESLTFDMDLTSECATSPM

Molecule	IC50 [1]	binding result [2]
CCOC(=O)CCNc1cc(N2CCc3ccccc3CC2)nc(-c2ccccn2)n1 [GSK-J4]	9 µM	–
IRF4 (other, mouse, UniProt Q64287 1-450, looked up, Endogenous transcription factor, immunoprecipitated with an anti-IRF4 antibody from Th17-polarized cell lysate; also called Endogenous IRF4) MNLETGSRGSEFGMSAVSCGNGKLRQWLIDQIDSGKYPGLVWENEEKSVFRIPWKHAGKQDYNREEDAALFKAWALFKGKFREGIDKPDPPTWKTRLRCALNKSNDFEELVERSQLDISDPYKVYRIVPEGAKKGAKQLTLDDTQMAMGHPYPMTAPYGSLPAQQVHNYMMPPHDRSWRDYAPDQSHPEIPYQCPVTFGPRGHHWQGPSCENGCQVTGTFYACAPPESQAPGIPIEPSIRSAEALALSDCRLHICLYYRDILVKELTTTSPEGCRISHGHTYDVSNLDQVLFPYPDDNGQRKNIEKLLSHLERGLVLWMAPDGLYAKRLCQSRIYWDGPLALCSDRPNKLERDQTCKLFDTQQFLSELQVFAHHGRPAPRFQVTLCFGEEFPDPQRQRKLITAHVEPLLARQLYYFAQQNTGHFLRGYELPEHVTTPDYHRSLRHSSIQE	–	no binding
